In PubChem BioAssay (NCI):
“And” between values parts separate entries of the source, which are not always exact repeats. Equal entries are not always repeated.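 Dose response: 5 concentrations. Exposure: 48 h. Format: 96-well plates. Endpoint: linear interpolation; highest concentration if not reached. Here, GI50 denotes the concentration required for 50% inhibition of growth. TGI marks complete inhibition of growth.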

Assays:
Assay in all cases: NCI tumour cell line growth inhibition, 48 h
DU-145 prostate = system: DU-145 prostate
HOP-62 NSCLC = system: HOP-62 NSCLC
HT29 colon = system: HT29 colon
K-562 leukemia = system: K-562 leukemia
MALME-3M melanoma = system: MALME-3M melanoma
NCI-H522 lung = system: NCI-H522 lung
SF-268 CNS = system: SF-268 CNS
SF-295 CNS = system: SF-295 CNS
SK-MEL-28 melanoma = system: SK-MEL-28 melanoma
SK-MEL-5 melanoma = system: SK-MEL-5 melanoma
SNB-19 CNS = system: SNB-19 CNS
UACC-257 melanoma = system: UACC-257 melanoma

SMILES | TGI (DU-145 prostate) | TGI (HOP-62 NSCLC) | TGI (HT29 colon) | TGI (K-562 leukemia) | TGI (MALME-3M melanoma) | TGI (NCI-H522 lung) | TGI (SF-268 CNS) | TGI (SF-295 CNS) | TGI (SK-MEL-28 melanoma) | TGI (SK-MEL-5 melanoma) | TGI (SNB-19 CNS) | TGI (UACC-257 melanoma) | GI50 (HT29 colon) | GI50 (MALME-3M melanoma) | GI50 (NCI-H522 lung) | GI50 (SF-295 CNS) | GI50 (SK-MEL-28 melanoma) | GI50 (SNB-19 CNS) | GI50 (UACC-257 melanoma)
CC(C)(C)c1ccc(O)c(Br)c1 | > 100 µM | > 100 µM | > 100 µM | > 100 µM | > 100 µM | > 100 µM | > 100 µM | > 100 µM | > 100 µM | > 100 µM | > 100 µM | > 100 µM |  |  |  |  |  |  | 
Clc1ccc(NCc2nnc(COc3ccc(OCc4nnc(CNc5ccc(Cl)cc5)o4)c(Cl)c3)o2)cc1 | > 100 µM | > 100 µM | 95.6 µM |  | > 100 µM | 46.5 µM | > 100 µM | > 100 µM | > 100 µM | 53.6 µM | > 100 µM | > 100 µM |  |  |  |  |  |  | 
CC(C)(C)OC(=O)N1C[C@H](CC(=O)OCc2ccccc2)C[C@H]1C(=O)OCC(Cl)(Cl)Cl | > 50 µM | > 50 µM | > 50 µM | > 50 µM | 25.3 µM | 13.6 µM | > 50 µM | > 50 µM | > 50 µM | 8.13 µM | > 50 µM | 31.3 µM |  |  |  |  |  |  | 
COC1OC(C(=O)CP(=O)(OC)OC)C(OCc2ccccc2)C(OCc2ccccc2)C1OCc1ccccc1 (stereo unspecified) | 31.3 µM and 33.5 µM | 32 µM and 32.5 µM | 30.6 µM and 31.7 µM | 63.1 µM and > 100 µM | 32.4 µM and 34.5 µM | 29.5 µM and 32.2 µM | 37.9 µM and 33.5 µM | 28.1 µM and 30.3 µM | 40 µM and 33.2 µM | 28.6 µM and 28.7 µM | 29.7 µM and 30.3 µM | 29.3 µM and 30.1 µM |  |  |  |  |  |  | 
O=C(CSc1nc2ccc(Cl)cc2c(=O)n1-c1ccccc1)N=Nc1c(O)[nH]c2ccc(F)cc12 | 4.85 µM | 4.19 µM | 3.96 µM | 11.3 µM | 11.6 µM | 3.86 µM | 8.83 µM | 14.9 µM | 11.3 µM | 10.3 µM | 10.5 µM | 10.6 µM |  |  |  |  |  |  | 
CCOC(=O)C(=CNC(Cc1c[nH]c2ccccc12)C(=O)OC)C(=O)OCC (stereo unspecified) |  |  | > 100 µM | > 100 µM | > 100 µM | > 100 µM | > 100 µM | > 100 µM | > 100 µM | > 100 µM | > 100 µM |  |  |  |  |  |  |  | 
CCN(CC)/[N+]([O-])=N/OC |  | > 100 µM | > 100 µM | > 100 µM |  | > 100 µM | > 100 µM | > 100 µM | > 100 µM | > 100 µM | > 100 µM | > 100 µM |  |  |  |  |  |  | 
C=C1CCCC(C)(C)[C@@H]1CC/C(C)=C/Cn1c2cccc(=O)c-2nc2ccccc21 |  | 9.37 µM | 27.4 µM and 3.29 µM | > 100 µM | > 100 µM | > 100 µM | 3.71 µM | 26.9 µM and 4.16 µM | 3.46 µM and 17.6 µM | 13.8 µM | 60.2 µM and 15.8 µM | 9.02 µM and 4.68 µM | 3.82 µM | 5.76 µM | 6.35 µM | 3.93 µM | 1.82 µM | 9.54 µM | 2.83 µM
O=C(N/N=C\c1ccc([N+](=O)[O-])cc1)Nc1ccccc1 | > 100 µM | > 100 µM | > 100 µM | > 100 µM | > 100 µM |  |  | > 100 µM | > 100 µM | > 100 µM | > 100 µM | > 100 µM |  |  |  |  |  |  | 
COc1ccc(Cc2nc3cc(Cl)ccc3o2)cc1 | > 100 µM | > 100 µM | > 100 µM | > 100 µM | > 100 µM | > 100 µM | > 100 µM | > 100 µM | > 100 µM | 31.1 µM | > 100 µM | 70.6 µM |  |  |  |  |  |  | 
Cn1c2c(c3c(=O)[nH]ncc31)CCc1ccccc1-2 | > 100 µM | > 100 µM | > 100 µM | > 100 µM | 88.5 µM | > 100 µM | > 100 µM | > 100 µM | 70.8 µM | 35.1 µM | > 100 µM | 40.6 µM |  |  |  |  |  |  | 
NC(N)=NS(=O)(=O)c1ccc(Nc2c3ccccc3nc3c(C(=O)N4CCN(CCO)CC4)ccc(Cl)c23)cc1 |  | > 100 µM | > 100 µM | > 100 µM | > 100 µM |  | > 100 µM | > 100 µM | > 100 µM | > 100 µM | > 100 µM | > 100 µM |  |  |  |  |  |  | 
Cc1cc(O)c2c(c1O)C(=O)c1c(O)ccc(O)c1C2=O | > 100 µM | > 100 µM | > 100 µM | > 100 µM | > 100 µM | > 100 µM | > 100 µM | > 100 µM |  | > 100 µM | > 100 µM | > 100 µM |  |  |  |  |  |  | 
Fc1cc(C2=C[C@H](c3ccc4c(c3)OCO4)NC(=S)N2)c(Cl)cc1Cl | > 100 µM | > 100 µM | > 100 µM | > 100 µM | 95.4 µM | > 100 µM | > 100 µM | > 100 µM | > 100 µM | 25.9 µM | > 100 µM | 83.6 µM |  |  |  |  |  |  | 
O=CC(O)C(O)C(O)COc1cc(CO)cc2c1C(=O)c1ccccc1C2=O (stereo unspecified) |  | > 100 µM | > 100 µM | > 100 µM | > 100 µM | > 100 µM | > 100 µM | > 100 µM | > 100 µM | > 100 µM | > 100 µM | > 100 µM |  |  |  |  |  |  | 
CCCCCCOC(=O)C(N)Cc1ccc(OC)cc1 (stereo unspecified) | > 100 µM | > 100 µM | > 100 µM | > 100 µM | > 100 µM | > 100 µM | > 100 µM | > 100 µM | > 100 µM | > 100 µM | > 100 µM | > 100 µM |  |  |  |  |  |  | 
